A short description of series [1]: Glomerular Filtration Rate(GFR) evaluated in Rhesus monkeys at the dose of 10 mg/kg by iv bolus injection. As to conditions: cercopithecidae, in vivo. The format is ADME, organism-based. Set-up: dose 10 mg/kg, route intravenous.
A short description of series [2]: Plasma clearance evaluated in Rhesus monkeys at the dose of 10 mg/kg by iv bolus injection. The format is ADME, organism-based. More on the design: dose 10 mg/kg, route intravenous. As to conditions: cercopithecidae.
A short description of series [3]: Renal clearance evaluated in Rhesus monkeys at the dose of 10 mg/kg by iv bolus injection. The format is ADME, organism-based, Kidney. Set-up: dose 10 mg/kg, route intravenous. Particulars: cercopithecidae, in vivo, read-out: Renal clearance.
Series [4] is described as follows: Half life evaluated in Rhesus monkeys at the dose of 10 mg/kg by iv bolus injection. As to conditions: cercopithecidae, in vivo, read-out: Beta t1/2 (converted). Set-up: dose 10 mg/kg, route intravenous. The series is classed as ADME, organism-based.
The nature of series [5]: AUC (area under curve) evaluated in Rhesus monkeys at the dose of 10 mg/kg by iv bolus injection. Set-up: dose 10 mg/kg, route intravenous. The format is ADME, organism-based, Plasma. As to conditions: cercopithecidae, plasma, read-out: AUC.
Series [6] deals with T1, Dipeptidase 1 (Sus scrofa) (UniProt P22412).
T1 sequence (whole entry): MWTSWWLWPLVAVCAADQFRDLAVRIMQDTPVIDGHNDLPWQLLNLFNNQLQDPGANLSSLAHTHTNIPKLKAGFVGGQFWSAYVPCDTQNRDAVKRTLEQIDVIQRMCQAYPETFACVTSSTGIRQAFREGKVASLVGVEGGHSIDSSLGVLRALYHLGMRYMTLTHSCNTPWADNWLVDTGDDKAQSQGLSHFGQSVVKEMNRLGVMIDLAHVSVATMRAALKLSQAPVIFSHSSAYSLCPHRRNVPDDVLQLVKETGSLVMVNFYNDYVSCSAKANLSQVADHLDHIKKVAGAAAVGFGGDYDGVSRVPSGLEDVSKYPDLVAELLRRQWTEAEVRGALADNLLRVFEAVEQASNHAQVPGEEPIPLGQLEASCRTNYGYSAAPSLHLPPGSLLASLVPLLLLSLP
The series is described as follows: Susceptibility to mammalian dehydropeptidas, DHP-1(Porcine).

For series [7], the system named is Enterococcus faecalis. The series is described as follows: Antibacterial activity against Enterococcus faecalis. The series is classed as functional.
Series [8] concerns Enterococcus faecalis. The series is described as follows: Antibacterial activity against vancomycin-resistant Enterococcus faecalis strain. The series is classed as functional.
In another series the test system is Enterococcus faecium. The series is described as follows: Antibacterial activity against vancomycin-resistant Enterococcal faecium strain. The format is functional.
The next series has as its system Bacteria. The experiment in a line: Antibacterial activity against Gram negative bacteria. The series is classed as functional.
Series [9] deals with Mus musculus. The experiment in a line: In vivo antibacterial activity against MSSA MB 2985 strain at the dose ~4 *10e7 cfu in brain heart broth along with antibiotic by sc administration at 0 hour in mice. The format is functional.
Series [10] relates to Mus musculus. The experiment in a line: In vivo antibacterial activity against MSSA MB 2985 strain at the dose ~4 *10e7 cfu in brain heart broth along with antibiotic by administration at 0 hour in mice. The format is functional.
A further series deals with T2, MecA (Staphylococcus aureus, UniProt Q7DHH4).
T2 sequence (Q7DHH4 whole entry): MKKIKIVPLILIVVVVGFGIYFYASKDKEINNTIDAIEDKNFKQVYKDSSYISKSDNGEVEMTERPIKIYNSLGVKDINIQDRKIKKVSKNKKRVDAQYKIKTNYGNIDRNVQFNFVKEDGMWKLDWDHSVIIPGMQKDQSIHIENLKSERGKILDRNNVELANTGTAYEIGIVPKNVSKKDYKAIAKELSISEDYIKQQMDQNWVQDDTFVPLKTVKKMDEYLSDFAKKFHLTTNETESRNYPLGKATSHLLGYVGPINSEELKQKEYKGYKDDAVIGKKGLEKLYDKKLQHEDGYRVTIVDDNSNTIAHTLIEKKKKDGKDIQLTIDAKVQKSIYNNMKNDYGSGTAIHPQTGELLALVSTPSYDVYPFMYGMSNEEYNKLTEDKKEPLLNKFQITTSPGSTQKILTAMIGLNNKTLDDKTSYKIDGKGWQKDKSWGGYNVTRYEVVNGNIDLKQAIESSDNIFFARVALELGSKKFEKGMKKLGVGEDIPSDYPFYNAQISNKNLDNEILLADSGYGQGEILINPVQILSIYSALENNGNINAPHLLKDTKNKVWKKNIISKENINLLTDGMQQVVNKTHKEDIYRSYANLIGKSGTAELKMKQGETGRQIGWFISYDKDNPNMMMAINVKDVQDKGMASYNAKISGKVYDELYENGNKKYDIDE
The experiment in a line: Binding affinity against PBP2a receptor by competition analysis with [3H]benzylpenicillin using cell membrane fractions from the MRSA COL strain.

A further series deals with Staphylococcus sp. The experiment in a line: Antibacterial activity against methicillin-resistant coagulase negative Staphylococci (MRCNS). The series is classed as functional.
Series [11] deals with Staphylococcus aureus. The experiment in a line: Antibacterial activity against MSSA (Methicillin-sensitive Staphylococcus aureus). The series is classed as functional.
For a further series, the system named is Streptococcus pyogenes. The series is described as follows: Antibacterial activity against Streptococcus pyogenes. The series is classed as functional.
The next series concerns Streptococcus pneumoniae. The experiment in a line: Antibacterial activity against penicillin-resistant Streptococcus pneumoniae. The series is classed as functional.
Series [12] deals with Staphylococcus aureus. The experiment in a line: Antibacterial activity against methicillin-resistant Staphylococcus aureus (MRSA). The format is functional.
Series [13] has as its system Mus musculus. The experiment in a line: In vivo antibacterial activity against MRSA 76 virginia strain at the dose ~1 *10e7 cfu in 5 percent hog gastric mucin along with antibiotic by sc administration at 0 and +4 hrs in mice. The series is classed as functional.

Values after ≈ are worked out from the molar mass of the structure shown. A value given as a limit tells only on which side of the number the result lay.

Consider `C[C@@H](O)[C@H]1C(=O)N2C(C(=O)[O-])=C(c3ccc4c(c3)-c3ccc(C[N+]56CC[N+](CC(N)=O)(CC5)CC6)cc3C4=O)[C@H](C)[C@H]12.[Cl-]`, for which, in [1], the GFR turned out to be 3.48 mL/min/kg. Moreover, in series [2], the clearance (in general, a measure of how efficiently the substance is removed, as volume per time) stood at 2.95 mL/min/kg. In series [3], the CL renal was found to be 2.72 mL/min/kg. In addition, the half-life in series [4] is 1.35 h. For the same compound, the AUC – broadly, concentration integrated over time – in [5] turned out to be 56400 ng·h/mL. Also, in series [6], the Rate of hydrolysis turned out to be 0.021. For the same compound, the MIC (usually the lowest concentration that inhibits growth of the organism) against Enterococcus faecalis [7] was found to be 0.5 µg/mL; against Enterococcus faecalis [8] it was 8 µg/mL; in the series with Enterococcus faecium, 8 µg/mL; against Bacteria, 3.6 µg/mL; with Mus musculus [10], 0.031 µg/mL; against Staphylococcus aureus [11], 0.03 µg/mL. The MIC was < 0.031 µg/mL against Streptococcus pyogenes, 0.24 µg/mL against Streptococcus pneumoniae and 2 µg/mL in the series on Mus musculus [13]. Further, the ED50 in the series with Mus musculus [9] came to 0.021 mg/kg; in the series on Mus musculus [13], 1 mg kg-1 dose-1. In addition, the IC50 (commonly the point on the concentration scale where inhibition reaches its midpoint) at MecA is 1320 nM. Moreover, the MIC50 against Staphylococcus sp. and in the series with Staphylococcus aureus [12] was 4 µg/mL each time. Also, the MIC90 (commonly the lowest concentration that inhibits either 90% of growth or 90% of the strains tested, depending on the study) came out at 8 µg/mL in the series with Staphylococcus sp. and 4 µg/mL against Staphylococcus aureus [12].

In turn, `C[C@@H](O)[C@H]1C(=O)N2C(C(=O)O)=C(SCCNC=N)C[C@H]12` [IMIPENEM ANHYDROUS] yielded a Rate of hydrolysis in [6] of 1. Moreover, the MIC in the series with Enterococcus faecalis [7] is 2 µg/mL (≈ 6.68 µM); against Enterococcus faecalis [8] it was 8 µg/mL (≈ 26.7 µM); with Enterococcus faecium, > 64 µg/mL; in the series on Bacteria it was 0.45 µg/mL (≈ 1.5 µM); in the series on Mus musculus [10] it was 0.008 µg/mL (≈ 0.0267 µM); in the series with Staphylococcus aureus [11], 0.03 µg/mL (≈ 0.1 µM). Also, the values for the MIC against Streptococcus pyogenes, against Streptococcus pneumoniae and in the series on Mus musculus [13] were < 0.031 µg/mL, 0.35 µg/mL (≈ 1.17 µM) and 64 µg/mL (≈ 214 µM), respectively. The figures for the ED50 in the series on Mus musculus [9] and with Mus musculus [13] were 0.021 mg/kg and 15.7 mg kg-1 dose-1, respectively. Besides, the MIC50 (usually the lowest concentration that inhibits either 50% of growth or 50% of the strains tested, depending on the study) worked out at 128 µg/mL (≈ 428 µM) with Staphylococcus sp. and 64 µg/mL (≈ 214 µM) in the series on Staphylococcus aureus [12]. Besides, the MIC90 was 256 µg/mL (≈ 855 µM) against Staphylococcus sp. and 128 µg/mL (≈ 428 µM) with Staphylococcus aureus [12].

As for `CN[C@H](CC(C)C)C(=O)N[C@H]1C(=O)N[C@@H](CC(N)=O)C(=O)N[C@H]2C(=O)N[C@H]3C(=O)N[C@H](C(=O)N[C@H](C(=O)O)c4cc(O)cc(O)c4-c4cc3ccc4O)[C@H](O)c3ccc(c(Cl)c3)Oc3cc2cc(c3O[C@@H]2O[C@H](CO)[C@@H](O)[C@H](O)[C@H]2O[C@H]2C[C@](C)(N)[C@H](O)[C@H](C)O2)Oc2ccc(cc2Cl)[C@H]1O` [VANCOMYCIN], the MIC against Enterococcus faecalis [8] was 32 µg/mL (≈ 22.1 µM); against Enterococcus faecium it was > 64 µg/mL; against Bacteria, > 64 µg/mL; with Mus musculus [10], 1 µg/mL (≈ 0.69 µM); in the series on Streptococcus pyogenes, 0.25 µg/mL (≈ 0.173 µM); in the series with Streptococcus pneumoniae it was 0.25 µg/mL (≈ 0.173 µM). The MIC with Mus musculus [13] is 1 µg/mL (≈ 0.69 µM). Moreover, the ED50 in the series on Mus musculus [9] is 3.7 mg/kg; in the series with Mus musculus [13], 2.33 mg kg-1 dose-1. For the same compound, the values for the MIC50 in the series with Staphylococcus sp. and against Staphylococcus aureus [12] were 4 µg/mL (≈ 2.76 µM) and 1 µg/mL (≈ 0.69 µM), respectively. Besides, the MIC90 in the series on Staphylococcus sp. is 4 µg/mL (≈ 2.76 µM); against Staphylococcus aureus [12], 2 µg/mL (≈ 1.38 µM).

Turning to `C[C@@H](O)[C@H]1C(=O)N2C(C(=O)O)=C(c3ccc4c(c3)-c3ccc(C[N+]56CC[N+](CC(=O)Nc7ccc(O)cc7)(CC5)CC6)cc3C4=O)[C@H](C)[C@H]12.[Cl-].[Cl-]`, the IC50 at MecA was 652 nM. The figures for the MIC50 in the series with Staphylococcus sp. and against Staphylococcus aureus [12] were 1 µg/mL and 0.5 µg/mL, respectively. The MIC90 worked out at 4 µg/mL against Staphylococcus sp. and 1 µg/mL against Staphylococcus aureus [12].

For the compound `C[C@@H](O)[C@H]1C(=O)N2C(C(=O)O)=C(c3ccc4c(c3)-c3ccc(C[N+]56CC[N+](CCOc7ccccc7)(CC5)CC6)cc3C4=O)[C@H](C)[C@H]12.[Cl-].[Cl-]`, the half-maximal inhibitory concentration (IC50) at MecA was 566 nM. The MIC50 against Staphylococcus sp. worked out at 2 µg/mL; in the series on Staphylococcus aureus [12], 1 µg/mL. For the same compound, the MIC90 against Staphylococcus sp. was 4 µg/mL; with Staphylococcus aureus [12], 2 µg/mL.

The values above are taken from ChEMBL document CHEMBL1131884, “Dicationic 2-fluorenonylcarbapenems: potent anti-MRS agents with improved solubility and pharmacokinetic properties” (Bioorg Med Chem Lett, 1999).
